Measured values from PubChem BioAssay (NCI).
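Tested at 5 concentrations; 48 h exposure; 96-well plates; endpoints linearly interpolated, else capped at highest concentration. The concentration for 50% growth inhibition is given as GI50. TGI: total growth inhibition.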

What was measured:
Test in all cases: DTP human tumour cell line panel, 48 h
SK-MEL-2 melanoma = system: SK-MEL-2 melanoma
NCI-H460 lung = system: NCI-H460 lung
K-562 leukemia = system: K-562 leukemia
SNB-75 CNS = system: SNB-75 CNS
HOP-92 NSCLC = system: HOP-92 NSCLC
OVCAR-5 ovarian = system: OVCAR-5 ovarian
OVCAR-8 ovarian = system: OVCAR-8 ovarian
NCI-H226 lung = system: NCI-H226 lung
KM12 colon = system: KM12 colon
SK-OV-3 ovarian = system: SK-OV-3 ovarian
MCF7 breast = system: MCF7 breast
OVCAR-4 ovarian = system: OVCAR-4 ovarian
SK-MEL-5 melanoma = system: SK-MEL-5 melanoma
HS 578T breast = system: HS 578T breast
MDA-MB-231 breast = system: MDA-MB-231 breast
EKVX NSCLC = system: EKVX NSCLC
IGROV1 ovarian = system: IGROV1 ovarian
HCT-15 colon = system: HCT-15 colon
A549 NSCLC = system: A549 NSCLC
RXF 393 renal = system: RXF 393 renal
SF-539 CNS = system: SF-539 CNS
M14 melanoma = system: M14 melanoma
SF-295 CNS = system: SF-295 CNS
OVCAR-3 ovarian = system: OVCAR-3 ovarian
CCRF-CEM leukemia = system: CCRF-CEM leukemia
SF-268 CNS = system: SF-268 CNS
PC-3 prostate = system: PC-3 prostate
UACC-62 melanoma = system: UACC-62 melanoma
HOP-62 NSCLC = system: HOP-62 NSCLC
CAKI-1 renal = system: CAKI-1 renal
MOLT-4 leukemia = system: MOLT-4 leukemia
LOX IMVI melanoma = system: LOX IMVI melanoma
COLO 205 colon = system: COLO 205 colon
HCC-2998 colon = system: HCC-2998 colon
UO-31 renal = system: UO-31 renal
SW-620 colon = system: SW-620 colon
U251 CNS = system: U251 CNS
NCI/ADR-RES ovarian = system: NCI/ADR-RES ovarian
MALME-3M melanoma = system: MALME-3M melanoma
UACC-257 melanoma = system: UACC-257 melanoma
HT29 colon = system: HT29 colon
SK-MEL-28 melanoma = system: SK-MEL-28 melanoma
SN12C renal = system: SN12C renal
NCI-H23 lung = system: NCI-H23 lung
786-0 renal = system: 786-0 renal
TK-10 renal = system: TK-10 renal
NCI-H522 lung = system: NCI-H522 lung
A498 renal = system: A498 renal
MDA-MB-435 = system: MDA-MB-435
T-47D breast = system: T-47D breast
BT-549 breast = system: BT-549 breast
HL-60(TB) leukemia = system: HL-60(TB) leukemia
ACHN renal = system: ACHN renal
SNB-19 CNS = system: SNB-19 CNS
DU-145 prostate = system: DU-145 prostate

With `COc1ccc(CC(C)=C(c2ccc(OCCN3CCCCCC3)cc2)c2ccc(OCCN3CCCCCC3)cc2)cc1` the GI50 (SK-MEL-2 melanoma) was 756 nM, the TGI (SK-MEL-2 melanoma) was 1500 nM and the GI50 (NCI-H460 lung) was 100 nM. It also gave a TGI (NCI-H460 lung) of 186 nM, a GI50 (K-562 leukemia) of 98.7 nM and a TGI (K-562 leukemia) of 220 nM. The GI50 (SNB-75 CNS) was 487 nM, the TGI (SNB-75 CNS) was 1160 nM and the GI50 (HOP-92 NSCLC) was 254 nM. It also gave a TGI (HOP-92 NSCLC) of 986 nM, a GI50 (OVCAR-5 ovarian) of 631 nM and a TGI (OVCAR-5 ovarian) of 1260 nM. For the same compound, the GI50 (OVCAR-8 ovarian) was 607 nM, the TGI (OVCAR-8 ovarian) was 1450 nM and the GI50 (NCI-H226 lung) was 531 nM. It also gave a TGI (NCI-H226 lung) of 1420 nM, a GI50 (KM12 colon) of 240 nM and a TGI (KM12 colon) of 823 nM. The GI50 (SK-OV-3 ovarian) was 612 nM, the TGI (SK-OV-3 ovarian) was 1240 nM and the GI50 (MCF7 breast) was 87.2 nM. The TGI (MCF7 breast) was 187 nM, the GI50 (OVCAR-4 ovarian) was 432 nM and the TGI (OVCAR-4 ovarian) was 1110 nM. The GI50 (SK-MEL-5 melanoma) was 119 nM, the TGI (SK-MEL-5 melanoma) was 312 nM and the GI50 (HS 578T breast) was 175 nM. For the same compound, the TGI (HS 578T breast) was 757 nM, the GI50 (MDA-MB-231 breast) was 176 nM and the TGI (MDA-MB-231 breast) was 487 nM. It also gave a GI50 (EKVX NSCLC) of 615 nM, a TGI (EKVX NSCLC) of 1300 nM and a GI50 (IGROV1 ovarian) of 370 nM. The TGI (IGROV1 ovarian) was 1020 nM, the GI50 (HCT-15 colon) was 121 nM and the TGI (HCT-15 colon) was 382 nM. For the same compound, the GI50 (A549 NSCLC) was 343 nM, the TGI (A549 NSCLC) was 1020 nM and the GI50 (RXF 393 renal) was 348 nM. The TGI (RXF 393 renal) was 1050 nM, the GI50 (SF-539 CNS) was 97.8 nM and the TGI (SF-539 CNS) was 194 nM. The GI50 (M14 melanoma) was 88.6 nM, the TGI (M14 melanoma) was 171 nM and the GI50 (SF-295 CNS) was 300 nM. For the same compound, the TGI (SF-295 CNS) was 861 nM, the GI50 (OVCAR-3 ovarian) was 113 nM and the TGI (OVCAR-3 ovarian) was 239 nM. For the same compound, the GI50 (CCRF-CEM leukemia) was 158 nM, the TGI (CCRF-CEM leukemia) was 609 nM and the GI50 (SF-268 CNS) was 474 nM. The TGI (SF-268 CNS) was 1150 nM, the GI50 (PC-3 prostate) was 265 nM and the TGI (PC-3 prostate) was 860 nM. For the same compound, the GI50 (UACC-62 melanoma) was 98.7 nM, the TGI (UACC-62 melanoma) was 199 nM and the GI50 (HOP-62 NSCLC) was 626 nM. The TGI (HOP-62 NSCLC) was 1280 nM, the GI50 (CAKI-1 renal) was 345 nM and the TGI (CAKI-1 renal) was 930 nM. For the same compound, the GI50 (MOLT-4 leukemia) was 133 nM, the TGI (MOLT-4 leukemia) was 406 nM and the GI50 (LOX IMVI melanoma) was 87.5 nM. It also gave a TGI (LOX IMVI melanoma) of 161 nM, a GI50 (COLO 205 colon) of 94.4 nM and a TGI (COLO 205 colon) of 182 nM. The GI50 (HCC-2998 colon) was 88.1 nM, the TGI (HCC-2998 colon) was 182 nM and the GI50 (UO-31 renal) was 308 nM. For the same compound, the TGI (UO-31 renal) was 929 nM, the GI50 (SW-620 colon) was 89 nM and the TGI (SW-620 colon) was 179 nM. The GI50 (U251 CNS) was 107 nM, the TGI (U251 CNS) was 259 nM and the GI50 (NCI/ADR-RES ovarian) was 655 nM. It also gave a TGI (NCI/ADR-RES ovarian) of 1410 nM, a GI50 (MALME-3M melanoma) of 90 nM and a TGI (MALME-3M melanoma) of 171 nM. For the same compound, the GI50 (UACC-257 melanoma) was 108 nM, the TGI (UACC-257 melanoma) was 262 nM and the GI50 (HT29 colon) was 84.3 nM. The TGI (HT29 colon) was 181 nM, the GI50 (SK-MEL-28 melanoma) was 91.1 nM and the TGI (SK-MEL-28 melanoma) was 166 nM. The GI50 (SN12C renal) was 657 nM, the TGI (SN12C renal) was 1350 nM and the GI50 (NCI-H23 lung) was 709 nM. It also gave a TGI (NCI-H23 lung) of 1410 nM, a GI50 (786-0 renal) of 83.8 nM and a TGI (786-0 renal) of 159 nM. For the same compound, the GI50 (TK-10 renal) was 729 nM, the TGI (TK-10 renal) was 1470 nM and the GI50 (NCI-H522 lung) was 443 nM. The TGI (NCI-H522 lung) was 1200 nM, the GI50 (A498 renal) was 513 nM and the TGI (A498 renal) was 1200 nM. The GI50 (MDA-MB-435) was 89.1 nM, the TGI (MDA-MB-435) was 166 nM and the GI50 (T-47D breast) was 219 nM. For the same compound, the TGI (T-47D breast) was 955 nM, the GI50 (BT-549 breast) was 681 nM and the TGI (BT-549 breast) was 1370 nM. It also gave a GI50 (HL-60(TB) leukemia) of 99 nM, a TGI (HL-60(TB) leukemia) of 229 nM and a GI50 (ACHN renal) of 135 nM. For the same compound, the TGI (ACHN renal) was 374 nM, the GI50 (SNB-19 CNS) was 232 nM and the TGI (SNB-19 CNS) was 817 nM. For the same compound, the GI50 (DU-145 prostate) was 275 nM and the TGI (DU-145 prostate) was 879 nM.
